From patent US20240368181A1, “QUINOXALINE DERIVATIVES AND USES THEREOF” (Black Diamond Therapeutics, Inc., priority 2021, published 2024)
pIC50: −log10 of the molar value.

How the values were obtained:
Format in all cases: cell-based
[1] = tested on: SNU-16 (FGFR2-amplification) cells; experiment: cell proliferation assay (CellTiterGlo), SNU-16 cells; conditions: Homo sapiens, 72 hours
In short: (§1)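 Cells were incubated with vehicle (DMSO) or compound over a range of concentrations. Growth inhibition was read by CellTiterGlo luminescence of intracellular ATP. IC50 was derived after normalizing to vehicle-treated cells as viable.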

[2] = tested on: UM-UC-14 (FGFR3-S249C) cells; experiment: cell proliferation assay (CellTiterGlo), UM-UC-14 cells; conditions: UMUC14, 72 h
In short: as §1

[3] = tested on: DMS-114 (FGFR1 overexpression) cells; experiment: cell proliferation assay (CellTiterGlo), DMS-114 cells; conditions: Homo sapiens, DMS-114, 72 h
In short: as §1

[4] = tested on: RT-112 (FGFR3-Tacc3 fusion) cells; experiment: cell proliferation assay (CellTiterGlo), RT-112 cells; conditions: Homo sapiens, RT-112, RT112 cells, 72 hours
In short: as §1

SMILES	pIC50 [1]	pIC50 [2]	pIC50 [3]	pIC50 [4]
Cc1nc2ccc(Oc3ccc4ncc(-c5cnn(C(OCc6ccccc6)C6CC6)c5)nc4c3Cl)cc2[nH]1 (stereo not shown) [Compound 222]	≤ 6.40	≤ 6.40	≤ 6.40	≤ 6.40
Cc1nc2ccc(Oc3ccc4ncc(-c5cnn(C6C7CCC6CNC7)c5)nc4c3Cl)cc2[nH]1 (stereo not shown) [Compound 223]	7.00 to 7.70	7.00 to 7.70	6.40 to 7.00	7.00 to 7.70
FC1(F)CC(Cn2cc(-c3cnc4ccc(Oc5ccc6[nH]c(C(F)(F)F)nc6c5)c(Cl)c4n3)cn2)C1 [Compound 224]	≤ 6.40	≤ 6.40	≤ 6.40	≤ 6.40
Cc1nc2ccc(Oc3ccc4ncc(-c5cnn(CCN6C[C@@H]7C[C@H]6CO7)c5)nc4c3Cl)cc2[nH]1 [Compound 225]	7.00 to 7.70	7.00 to 7.70	≤ 6.40	7.00 to 7.70
Cc1nc2ccc(Oc3ccc4ncc(-c5cnn(C6CN(CC(=O)N7CC(F)(F)C7)C6)c5)nc4c3Cl)cc2[nH]1 [Compound 226]	6.40 to 7.00	7.00 to 7.70	≤ 6.40	7.00 to 7.70
Cc1nc2ccc(Oc3ccc4ncc(-c5cnn(C6CN(C)C6)c5)nc4c3Cl)cc2[nH]1 [Compound 227]	7.00 to 7.70	7.00 to 7.70	≤ 6.40	7.00 to 7.70
Cc1nc2ccc(Oc3ccc4ncc(-c5cnn(CC6CS(=O)(=O)C6)c5)nc4c3Cl)cc2[nH]1 [Compound 228]	7.00 to 7.70	7.00 to 7.70	≤ 6.40	7.00 to 7.70
Cc1nc2c(F)c(Oc3ccc4ncc(-c5cnn(CC6CC(F)(F)C6)c5)nc4c3Cl)ccc2[nH]1 [Compound 229]	7.00 to 7.70	7.00 to 7.70	≤ 6.40	7.00 to 7.70
Cc1nc2ccc(Oc3ccc4ncc(-c5cnn(C6CN(C7CN(C)C7)C6)c5)nc4c3Cl)cc2[nH]1 [Compound 230]	7.00 to 7.70	7.00 to 7.70	≤ 6.40	7.00 to 7.70
C=C(C)c1c(Oc2ccc3nc(C)[nH]c3c2)ccc2ncc(-c3cnn(CC4CC(F)(F)C4)c3)nc12 [Compound 231]	7.00 to 7.70	7.00 to 7.70	≤ 6.40	7.00 to 7.70
Cc1nc2ccc(Oc3ccc4ncc(-c5cnn(C6CCN(C(=O)N7CCC7)CC6)c5)nc4c3Cl)cc2[nH]1 [Compound 232]	7.00 to 7.70	7.00 to 7.70	≤ 6.40	7.00 to 7.70
CC(=O)/C=C/N1CC[C@H](n2cc(-c3cnc4ccc(Oc5ccc6nc(C)[nH]c6c5)c(Cl)c4n3)cn2)[C@@H](F)C1 [Compound 233]	7.00 to 7.70	7.00 to 7.70	≤ 6.40	7.00 to 7.70
Cc1nc2ccc(Oc3ccc4ncc(-c5cnn(CCN6C[C@H]7C[C@@H]6CO7)c5)nc4c3Cl)cc2[nH]1 [Compound 234]	7.00 to 7.70	7.00 to 7.70	≤ 6.40	7.00 to 7.70
Cc1nc2ccc(Oc3ccc4ncc(-c5cnn(C6CN(CC(=O)N7CC(O)C7)C6)c5)nc4c3Cl)cc2[nH]1 [Compound 235]	7.00 to 7.70	7.00 to 7.70	≤ 6.40	7.00 to 7.70
Cc1nc2ccc(Oc3ccc4ncc(-c5cnn(C6CN(CC(=O)N7CCC7)C6)c5)nc4c3Cl)cc2[nH]1 [Compound 236]	7.00 to 7.70	7.00 to 7.70	≤ 6.40	7.00 to 7.70
Cc1nc2ccc(Oc3ccc4ncc(-c5cnn(C6CN(C7COC7)C6)c5)nc4c3Cl)cc2[nH]1 [Compound 237]	7.00 to 7.70	7.00 to 7.70	6.40 to 7.00	> 7.70
Cc1nc2ccc(Oc3ccc4ncc(-c5cnn(C6CN(C7CCOCC7)C6)c5)nc4c3Cl)cc2[nH]1 [Compound 238]	7.00 to 7.70	7.00 to 7.70	6.40 to 7.00	7.00 to 7.70

SMILES	pIC50 [1]	pIC50 [2]	pIC50 [3]	pIC50 [4]
Cc1nc2ccc(Oc3ccc4ncc(-c5cnn(CCN6CCC6)c5)nc4c3Cl)cc2[nH]1 [Compound 239]	≤ 6.40	≤ 6.40	≤ 6.40	≤ 6.40
Cc1nc2ccc(Oc3ccc4ncc(-c5cnn(CC6CCN(C)S(=O)(=O)C6)c5)nc4c3Cl)cc2[nH]1 (stereo not shown) [Compound 240]	7.00 to 7.70	7.00 to 7.70	6.40 to 7.00	7.00 to 7.70
Cc1nc2ccc(Oc3ccc4ncc(-c5cnn(CC6CC7CC6CO7)c5)nc4c3Cl)cc2[nH]1 (stereo not shown) [Compound 241]	7.00 to 7.70	7.00 to 7.70	6.40 to 7.00	> 7.70
Cc1nc2ccc(Oc3ccc4ncc(-c5cnn(C6CC(=O)C6)c5)nc4c3Cl)cc2[nH]1 [Compound 242]	7.00 to 7.70	7.00 to 7.70	≤ 6.40	7.00 to 7.70
Cc1nc2ccc(Oc3ccc4ncc(-c5cnn(CC6CC(F)(F)C6)c5)nc4c3Br)cc2[nH]1 [Compound 243]	7.00 to 7.70	7.00 to 7.70	≤ 6.40	7.00 to 7.70
Cc1nc2ccc(Oc3ccc4ncc(-c5cnn(C6CC(N7CCC7)C6)c5)nc4c3Cl)cc2[nH]1 (stereo not shown) [Compound 244]	6.40 to 7.00	7.00 to 7.70	≤ 6.40	7.00 to 7.70
Cc1nc2ccc(Oc3ccc4ncc(-c5cnn(CC6COCCN6C)c5)nc4c3Cl)cc2[nH]1 (stereo not shown) [Compound 245]	7.00 to 7.70	7.00 to 7.70	≤ 6.40	7.00 to 7.70
Cc1nc2ccc(Oc3ccc4ncc(-c5cnn(CC6COCCN6)c5)nc4c3Cl)cc2[nH]1 (stereo not shown) [Compound 246]	7.00 to 7.70	7.00 to 7.70	≤ 6.40	7.00 to 7.70
Cc1nc2cc(F)c(Oc3ccc4ncc(-c5cnn(CCO)c5)nc4c3Cl)cc2[nH]1 [Compound 247]	7.00 to 7.70	7.00 to 7.70	≤ 6.40	7.00 to 7.70
Cc1nc2cc(Oc3ccc4ncc(-c5cnn(CC6(O)CCN(C7COC7)CC6)c5)nc4c3Cl)ccc2[nH]1 [Compound 248]	7.00 to 7.70	7.00 to 7.70	6.40 to 7.00	7.00 to 7.70
Cc1nc2ccc(Oc3ccc4ncc(-c5cnn(C6CCNC(C)(C)C6)c5)nc4c3Cl)cc2[nH]1 (stereo not shown) [Compound 249]	7.00 to 7.70	7.00 to 7.70	≤ 6.40	7.00 to 7.70
Cc1nc2ccc(Oc3ccc4ncc(-c5cnn(C6CC(C)(O)C6)c5)nc4c3Cl)cc2[nH]1 (stereo not shown) [Compound 250]	> 7.70	7.00 to 7.70	≤ 6.40	> 7.70
Cc1nc2ccc(Oc3ccc4ncc(-c5cnn(CCN6CC(F)(F)C6)c5)nc4c3Cl)cc2[nH]1 [Compound 251]	7.00 to 7.70	7.00 to 7.70	≤ 6.40	7.00 to 7.70
Cc1nc2ccc(Oc3ccc4ncc(-c5cnn(CCN6CCC(F)(F)C6)c5)nc4c3Cl)cc2[nH]1 [Compound 252]	7.00 to 7.70	7.00 to 7.70	≤ 6.40	7.00 to 7.70
Cc1nc2ccc(Oc3ccc4ncc(-c5cnn(CC6(F)CC6)c5)nc4c3Cl)cc2[nH]1 [Compound 253]	6.40 to 7.00	6.40 to 7.00	≤ 6.40	6.40 to 7.00
Cc1nc2ccc(Oc3ccc4ncc(-c5cnn(C6CN(CC#N)C6)c5)nc4c3Cl)cc2[nH]1 [Compound 254]	7.00 to 7.70	7.00 to 7.70	≤ 6.40	7.00 to 7.70
Cc1nc2ccc(Oc3ccc4ncc(-c5cnn(C(C)(C)CC#N)c5)nc4c3Cl)cc2[nH]1 [Compound 255]	7.00 to 7.70	7.00 to 7.70	≤ 6.40	7.00 to 7.70
